Holding throughout (assay type): biochemical
The target in test [1] is T1, caspase 1 (Homo sapiens, UniProt P29466).
T1 construct: purchased BIOMOL Research Laboratories (Plymouth Meeting, Pa.)
T1 sequence (P29466 120-297 limits assumed): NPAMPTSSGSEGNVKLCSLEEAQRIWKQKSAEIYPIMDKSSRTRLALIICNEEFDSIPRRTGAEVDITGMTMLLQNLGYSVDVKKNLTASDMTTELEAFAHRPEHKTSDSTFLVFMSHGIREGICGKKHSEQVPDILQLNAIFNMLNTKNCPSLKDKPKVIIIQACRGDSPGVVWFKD
T1 sequence (P29466 317-404 limits assumed): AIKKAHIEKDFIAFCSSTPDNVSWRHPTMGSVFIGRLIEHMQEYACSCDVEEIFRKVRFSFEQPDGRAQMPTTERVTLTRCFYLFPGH
Nature of the test: Enzyme inhibition assay, caspase 1 (fluorogenic Ac-YVAD-AMC).
Procedure: (§1) Enzyme Assays. Inhibition of recombinant human caspase-3 and other caspases by the isatin analogues was assessed using a fluorometric assay by measuring the accumulation of a fluorogenic product, 7-amino-4-methylcoumarin (7-AMC).
(§2) Enzyme Inhibition Assays. Recombinant human caspases (3, 6, 7, and 8) and their peptide-specific substrates (Ac-DEVDAMC, Ac-VEID-AMC, Ac-DEVD-AMC, and Ac-IETD-AMC, respectively) were purchased from Sigma-Aldrich (St. Louis, Mo.) with the exception of caspase 1 and its substrate (Ac-YVAD-AMC), which were obtained from BIOMOL Research Laboratories (Plymouth Meeting, Pa.). The enzymatic activity of caspases was determined by measuring the accumulation of the fluorogenic product 7-amino-4-methylcoumarin (AMC). All assays were prepared in 96-well format at a volume of 210 μL per well and consisted of 100 mM Na+ HEPES (pH 7.4), 10% sucrose, 100 mM NaCl, 0.1% CHAPS, 5 mM 2-mercaptoethanol, 2 mM EDTA, 10 μM Ac-YVAD-AMC (caspase 1); 20 mMNa^+ HEPES (pH 7.4), 10% sucrose, 100 mMNaCl, 0.1% CHAPS, 2 mM EDTA, 10 μM Ac-DEVD-AMC (caspase 3); 20 mM Na^+ HEPES (pH 7.4), 10% sucrose, 100 mM NaCl, 0.1% CHAPS, 2 mM EDTA, 10 μM Ac-VEID-AMC (caspase 6); 20 mM Na+ HEPES (pH 7.4), 100 mM NaCl, 10% sucrose, 0.1% CHAPS, 5 mM 2-mercaptoethanol, 2 mM EDTA, 10 μM Ac-DEVD-AMC (caspase 7); 20 mM Na+ HEPES (pH 7.4), 10% sucrose, 100 mM NaCl, 0.1% CHAPS, 2 mM EDTA, 10 μM Ac-IETD-AMC (caspase 8).
(§3) Recombinant caspases were first assayed to determine the optimal concentration for each experiment. Optimal concentrations were based in the linear range of the enzyme activation curves. Peptide inhibitors with known IC50 values were tested together with the compounds as a control for each caspase assay. […] Peptide and nonpeptide inhibitors were dissolved in DMSO, and a 2 serial dilution was performed prior to screening in order to obtain desired concentrations. 10 μL was added to each well containing 100 μL caspase solution and allowed to incubate on ice for 30 min. […] The final concentration of DMSO in all wells was 5% of the total volume. In caspase-1 and caspase-7 assays, 10 mM 2-mercaptoethanol was added to the substrate solution for full activation of the enzymes.
(§4) Compounds were tested in duplicate, and IC50 curves were calculated for all inhibitors assayed. Final IC50s were the average of three independent experiments.

In test [2] the target is T2, caspase-3 (Homo sapiens, UniProt P42574).
T2 construct: purchased Sigma-Aldrich (St. Louis, Mo.)
T2 sequence (P42574 29-175 limits assumed): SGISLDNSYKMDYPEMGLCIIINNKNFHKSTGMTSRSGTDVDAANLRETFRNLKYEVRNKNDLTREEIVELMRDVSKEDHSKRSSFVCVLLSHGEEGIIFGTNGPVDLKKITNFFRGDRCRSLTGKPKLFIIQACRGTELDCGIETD
T2 sequence (P42574 176-277 limits assumed): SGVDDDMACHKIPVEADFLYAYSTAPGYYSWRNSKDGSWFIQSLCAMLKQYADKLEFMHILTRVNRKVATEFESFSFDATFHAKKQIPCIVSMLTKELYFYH
Kind of test: Enzyme inhibition assay, caspase 3 (fluorogenic Ac-DEVD-AMC).
Procedure: as §1, §2, §3, §4

Test [3] has as its target T3, caspase 6 (Homo sapiens, UniProt P55212).
T3 construct: purchased Sigma-Aldrich (St. Louis, Mo.)
T3 sequence (P55212 24-179 limits assumed): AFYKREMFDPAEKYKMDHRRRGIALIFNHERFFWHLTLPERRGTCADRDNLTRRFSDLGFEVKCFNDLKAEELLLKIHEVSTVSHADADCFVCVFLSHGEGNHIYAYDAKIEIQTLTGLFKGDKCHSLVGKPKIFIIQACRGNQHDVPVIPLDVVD
T3 sequence (P55212 194-293 limits assumed): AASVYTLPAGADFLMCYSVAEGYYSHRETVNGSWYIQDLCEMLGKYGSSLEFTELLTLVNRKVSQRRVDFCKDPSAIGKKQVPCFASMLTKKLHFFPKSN
Nature of the test: Enzyme inhibition assay, caspase 6 (fluorogenic Ac-VEID-AMC).
Procedure: as §1, §2, §3, §4

For test [4], the target named is T4, caspase 7 (Homo sapiens, UniProt P55210).
T4 construct: purchased Sigma-Aldrich (St. Louis, Mo.)
T4 sequence (P55210 24-198 limits assumed): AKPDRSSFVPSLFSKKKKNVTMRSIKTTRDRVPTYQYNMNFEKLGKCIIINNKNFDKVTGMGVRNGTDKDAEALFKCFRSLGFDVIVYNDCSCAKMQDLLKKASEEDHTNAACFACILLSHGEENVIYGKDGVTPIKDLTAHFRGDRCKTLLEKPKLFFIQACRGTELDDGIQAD
T4 sequence (P55210 207-303 limits assumed): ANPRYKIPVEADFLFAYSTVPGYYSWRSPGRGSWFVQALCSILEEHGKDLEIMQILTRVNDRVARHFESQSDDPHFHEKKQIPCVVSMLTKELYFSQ
Kind of test: Enzyme inhibition assay, caspase 7 (fluorogenic Ac-DEVD-AMC).

The target of test [5] is T5, caspase 8 (Homo sapiens, UniProt Q14790).
T5 construct: purchased Sigma-Aldrich (St. Louis, Mo.)
T5 sequence (Q14790 217-374 limits assumed): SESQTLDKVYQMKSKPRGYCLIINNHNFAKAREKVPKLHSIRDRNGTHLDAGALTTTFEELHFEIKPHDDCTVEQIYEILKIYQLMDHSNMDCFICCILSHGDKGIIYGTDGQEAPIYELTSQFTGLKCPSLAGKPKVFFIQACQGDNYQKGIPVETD
T5 sequence (Q14790 385-479 limits assumed): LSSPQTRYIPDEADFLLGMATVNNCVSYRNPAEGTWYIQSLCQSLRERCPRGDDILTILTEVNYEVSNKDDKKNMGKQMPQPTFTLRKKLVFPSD
Nature of the test: Enzyme inhibition assay, caspase 8 (fluorogenic Ac-IETD-AMC).

The mark [6] stands for this setting: Table 2, read-out: IC50 (nM) Caspase 8.
Setting [7] is: Table 2, read-out: IC50 (nM) Caspase 1.
Setting [8] is: Table 2, read-out: IC50 (nM) Caspase 3.
Setting [9] is: Table 2, read-out: IC50 (nM) Caspase 6.
Setting [10] is: Table 2, read-out: IC50 (nM) Caspase 7.
The mark [11] stands for this setting: Table 1, read-out: IC50 (nM) Caspase 1.
The mark [12] stands for this setting: Table 1, read-out: IC50 (nM) Caspase 3.
The mark [13] stands for this setting: Table 1, read-out: IC50 (nM) Caspase 6.
[14] abbreviates: Table 1, read-out: IC50 (nM) Caspase 7.
The mark [15] stands for this setting: Table 1, read-out: IC50 (nM) Caspase 8.

Like-named read-outs stand apart in the source and are kept apart here.

This is an account of results in patent US8329686B2, “Isatin analogues and uses therefor” (Washington University, priority 2006, dated 2012).

Turning to `N#CC(C#N)=C1C(=O)N(Cc2ccc(Br)cc2)c2ccc(S(=O)(=O)N3CCCC3COc3cccnc3)cc21` (centres unmarked) [Compound 30c, 2-{1-(4-Bromo-benzyl)-2-oxo-5-[2-(pyndine-3-yloxymethyl)-pyrrolidine-1-sulfonyl]-1,2-dihydro-indol-3-yl-idene}-malononitrile], the IC50 in test [1] is 3400 nM; in test [1] (IC50 (nM) Casp-1, Table 7) it was 3400 nM; in test [1] (read-out: IC50 for caspase-1), 2700 to 3200 nM; in test [2] (IC50 (nM) Caspase 3, Table 2), 5.13 ± 0.7 nM; in test [2] (IC50 for caspase-3) it was 5.1 nM; in test [3], 515 ± 77 nM. For the same compound, the IC50 is 515 to 770 nM in test [3] (read-out: IC50 for caspase-6); 26.3 ± 0.8 nM in test [4] (IC50 (nM) Casp-7, Table 7); 26.3 ± 0.8 nM in test [4] (IC50 (nM) Caspase 7, Table 2); 26.3 nM in test [4] (IC50 for caspase-7); greater than 50000 nM in test [5] (setting [6]); greater than 50000 nM in test [5] (Table 7, read-out: IC50 (nM) Casp-8). Also, the IC50 in test [5] (read-out: IC50 for caspase-8) was greater than 50000 nM.
On to `O=C1Nc2ccc(S(=O)(=O)N3CC[C@H]3COc3ccccc3)cc2C1=NO` [WC-II-52], for which the IC50 in test [1] (setting [7]) is greater than 50000 nM; in test [2] (setting [8]), greater than 20000 nM; in test [3] (setting [9]), greater than 20000 nM; in test [4] (setting [10]), greater than 50000 nM; in test [5] (setting [6]), greater than 50000 nM. The “potency as caspase-3/7 inhibitors (in words)” value in test [2] (caspase-3/7) is given as “low potency”.
For `N#CC(C#N)=C1C(=O)Nc2ccc(S(=O)(=O)N3CC[C@H]3COc3ccccc3)cc21` [WC-II-54], the IC50 in test [1] (setting [7]) was 2380 nM; in test [2] (setting [8]) it was 283 ± 15 nM; in test [3] (setting [9]), 540 ± 44 nM; in test [4] (setting [10]), 2380 nM; in test [5] (setting [6]), greater than 50000 nM.
As to `COc1ccc(CN2C(=O)C(=C(C#N)C#N)c3cc(S(=O)(=O)N4CC[C@H]4COc4cccnc4)ccc32)cc1` [WC-II-87], the IC50 is 3600 nM in test [1] (setting [7]); 6 ± 0.8 nM in test [2] (setting [8]); 450 ± 43 nM in test [3] (setting [9]); 50 ± 11.6 nM in test [4] (setting [10]); greater than 50000 nM in test [5] (setting [6]).
For the compound `N#CC(C#N)=C1C(=O)N(Cc2ccc(OCCF)cc2)c2ccc(S(=O)(=O)N3CCC[C@H]3COc3ccccc3)cc21` [WC-II-92], the IC50 is 10000 nM in test [1] (setting [7]); 18.3 ± 0.4 nM in test [2] (setting [8]); 927 ± 35 nM in test [3] (setting [9]); 96.3 ± 20.7 nM in test [4] (setting [10]); greater than 50000 nM in test [5] (setting [6]).
Regarding `O=C1C(=O)N(Cc2ccc(OCCF)cc2)c2ccc(S(=O)(=O)N3CCC[C@H]3COc3cccnc3)cc21` [WC-II-100], the IC50 in test [1] (setting [11]) is greater than 20000 nM; in test [2] (setting [12]), 3.1 ± 0.4 nM; in test [3] (setting [13]), 6900 nM; in test [4] (setting [14]), 11.3 ± 0.6 nM; in test [5] (setting [15]) it was greater than 50000 nM.
`O=C1C(=O)N(Cc2ccc(OCCF)cc2)c2ccc(S(=O)(=O)N3CC[C@H]3COc3cccnc3)cc21` [WC-II-101]: the IC50 in test [1] (setting [11]) was greater than 10000 nM; in test [2] (setting [12]) it was 3.6 ± 0.5 nM; in test [3] (setting [13]), 8700 nM; in test [4] (setting [14]), 17.6 ± 0.4 nM; in test [5] (setting [15]), greater than 50000 nM.
